US20250320205A1, “STAT6 DEGRADERS” (Gilead Sciences, Inc., priority 2024, published 2025)

How the values were obtained:
STAT6 = biological target: T1, STAT6 (Homo sapiens, UniProt P42226); experiment: STAT6 Degrader Assay (HiBiT based, HeLa LgBiT clone 4.14 cells); type: cell-based; settings: geometric mean across assay runs and compound batches; DC50 provided for test compounds with >80% Emax; read-out: STAT6 degradation DC50
T1 construct: These cells express endogenous STAT6; host or cells: HeLa LgBiT clone 4.14 (CRISPR knock-in of HiBiT into the endogenous STAT6 gene)
T1 sequence (P42226 1-847): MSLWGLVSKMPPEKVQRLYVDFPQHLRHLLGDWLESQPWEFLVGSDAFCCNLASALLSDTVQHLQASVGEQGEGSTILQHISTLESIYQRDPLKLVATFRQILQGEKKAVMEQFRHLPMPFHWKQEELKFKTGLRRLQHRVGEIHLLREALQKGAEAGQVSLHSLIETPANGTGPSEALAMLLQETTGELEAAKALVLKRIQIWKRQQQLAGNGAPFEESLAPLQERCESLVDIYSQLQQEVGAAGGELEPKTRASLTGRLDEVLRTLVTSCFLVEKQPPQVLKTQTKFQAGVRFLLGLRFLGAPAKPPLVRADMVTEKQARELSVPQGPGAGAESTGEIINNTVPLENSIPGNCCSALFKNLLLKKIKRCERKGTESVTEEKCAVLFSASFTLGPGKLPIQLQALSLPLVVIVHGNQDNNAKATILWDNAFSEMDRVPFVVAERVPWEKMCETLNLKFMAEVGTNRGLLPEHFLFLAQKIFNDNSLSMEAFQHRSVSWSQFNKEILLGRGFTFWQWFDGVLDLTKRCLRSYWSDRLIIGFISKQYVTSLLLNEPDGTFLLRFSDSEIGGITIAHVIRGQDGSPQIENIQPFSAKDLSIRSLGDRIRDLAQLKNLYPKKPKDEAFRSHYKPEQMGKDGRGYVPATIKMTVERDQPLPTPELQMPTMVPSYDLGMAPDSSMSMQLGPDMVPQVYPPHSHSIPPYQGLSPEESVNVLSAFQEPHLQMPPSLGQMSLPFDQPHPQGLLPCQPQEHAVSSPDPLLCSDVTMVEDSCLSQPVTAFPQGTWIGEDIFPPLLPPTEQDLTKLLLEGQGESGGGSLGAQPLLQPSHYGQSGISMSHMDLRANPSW
Summary of the method: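 DC50 (nM) comes from NanoBiT luminescence of HiBiT-knock-in STAT6 in HeLa LgBiT clone 4.14 cells, treated 4-24 h at 37° C. Luminescence reflects non-degraded STAT6, with 50 μM terfenadine wells taken as full degradation.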

[1] = test system: Eotaxin-3 (CCL26) release; experiment: Human Whole Blood Eotaxin-3 Assay (IL-4 stimulated); type: cell-based; settings: Homo sapiens; geometric mean across assay runs and compound batches; EC50 provided for test compounds with >80% Emax
Summary of the method: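 Lithium-heparin human whole blood preincubated 2 h at 37 °C with compounds (4-fold dilutions, triplicate, 0.5% DMSO final). Then stimulated with 400 pM final recombinant human IL-4 for 48 h. Eotaxin-3 in supernatant quantified by MSD immunoassay.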

`CNc1ccn(-c2ccnc3c2cc([C@@H](C)N2CCC(c4c(F)cc(C(=O)N5CCn6nc(CN7CCC(c8ccc(NC9CCC(=O)NC9=O)cc8F)CC7)cc6C5)cc4F)CC2)n3C)c(=O)c1` (stereo partly drawn) [Example 2g110, 3-((4-(1-((5-(3,5-difluoro-4-(1-((R)-1-(1-methyl-4-(4-(methylamino)-2-oxopyridin-1(2H)-yl)-1H-pyrrolo[2,3-b]pyridin-2-yl)ethyl)piperidin-4-yl)benzoyl)-4,5,6,7-tetra-hydropyrazolo[1,5-a]pyrazin-2-yl)methyl)piperidin-4-yl)-3-fluorophenyl)amino)piperi-dine-2,6-dione] gave a DC50 (STAT6) of 10.5 nM and an EC50 [1] of 23.3 nM.

For `CNc1cc(=O)n(-c2ccnc3c2cc(CN2CCC(c4c(F)cc(C(=O)N5CCn6nc(CN7CCC(c8ccc(N[C@H]9CCC(=O)NC9=O)c(OC)c8)CC7)cc6C5)cc4F)CC2)n3C)cc1F` (single isomer, unassigned) [Example 2g123], the DC50 (STAT6) was 1.8 nM and the EC50 [1] was 2.6 nM.
